{"source": "paper PMC9221442", "about": "“Design, Synthesis and Characterization of [G10a]-Temporin SHa Dendrimers as Dual Inhibitors of Cancer and Pathogenic Microbes” (Biomolecules, 2022)", "key": {"[1]": {"assay": "Stability study at different pH", "conditions": "pH 2 to pH 14", "protocol": "The stability of dendrimers at different pH values and temperatures was also determined. For this, a 510 model digital pH meter (Oakton Eutech) with working electrode of glass material and a Ag/AgCl as reference electrode was used for the pH record. […] Similarly, stability of monomer [G10a]-SHa and its three dendrimers was checked by heating the peptide dendrimers on different temperature ranges, i.e., room temperature, 35 °C, 40 °C, 50 °C and 60 °C."}, "[2]": {"test_system": "H. pylori", "set-up": "method as in PMID 31614561", "conditions": "cited from earlier work"}, "[3]": {"test_system": "ovarian cancer cells A2780", "assay_type": "cell-based, human", "conditions": "48 h", "protocol": "(§1) The antiproliferative effect of the peptides was determined by using human cells, as previously described. Human cancer cells used in this experiment were ovarian cancer cells A2780 (obtained from ECACC), breast cancer cells MCF-7 (obtained from ATCC), liver cancer cells HepG2 (obtained from ATCC), lung cancer cells A549 (obtained from ATCC), pancreatic cancer cells MiaPaCa (obtained from ATCC), prostate cancer cells PC-3 (obtained from ATCC), and skin cancer cells MNT-1 (generous gift from the National Institute of Health (NIH). Normal human cells used were human lung fibroblasts IMR-90 (obtained from ATCC). All cells were cultured in DMEM which was supplemented with 10% fetal bovine serum (FBS), 1% L-glutamine, and 1% antibiotics (all from Invitrogen) at 37 °C in 5% CO2 incubator. For cytotoxicity assay, cells were maintained in 25 cm^2 flasks. Cells were separated from flasks using trypsin-EDTA solution (from Thermofisher) and counted using Malassez chamber and diluted in culture medium before seeding into 96-well cell-culture plates (Greiner bio-one, Paris, France) at approximately 3000 cells/well. Cells were then treated with increasing concentration of peptides diluted in culture medium (1:2 serial dilution, from 100 µM to 0 µM). After 48 h, medium was aspirated and number of viable cells was colorimetrically determined using resazurin-based assay following manufacturer’s instructions. The fluorescence intensity was measured using microplate reader (Biotek, Santa Clara, CA, USA, Synergy Mx) with an excitation wavelength of 530 nm and an emission wavelength of 590 nm. The fluorescence values were normalized by the controls (untreated cells) and expressed as percent of proliferation. The IC50 values of peptides (i.e., the concentrations causing 50% inhibition of cell proliferation) were determined using GraphPad® Prism 7 software."}, "[4]": {"test_system": "pancreatic cancer cells MiaPaCa", "assay_type": "cell-based, human", "conditions": "48 h", "protocol": "as §1"}, "[5]": {"test_system": "skin cancer cells MNT-1", "assay_type": "cell-based, human", "conditions": "48 h", "protocol": "as §1"}, "[6]": {"test_system": "lung cancer cells A549", "assay_type": "cell-based, human", "conditions": "48 h", "protocol": "as §1"}, "[7]": {"test_system": "breast cancer cells MCF-7", "assay_type": "cell-based, human", "conditions": "48 h", "protocol": "as §1"}, "[8]": {"test_system": "liver cancer cells HepG2", "assay_type": "cell-based, human", "conditions": "48 h", "protocol": "as §1"}, "[9]": {"test_system": "prostate cancer cells PC-3", "assay_type": "cell-based, human", "conditions": "48 h", "protocol": "as §1"}, "[10]": {"assay": "Dynamic light scattering (zetasizer)", "assay_type": "physicochemical", "protocol": "The dendrimeric solutions of peptides were transferred into transparent cuvette with care to remove bubble formation. The sample was then transferred to the cell holder and study was performed at 90° scattering angle at room temperature. The standard viscosity and refractive index were kept constant and kept at 1.0, 1.33 and 80.4 mPa, respectively."}, "[11]": {"assay": "Stability study at different temperatures (absorbance spectrum)", "conditions": "room temperature, 35 °C, 40 °C, 50 °C and 60 °C", "protocol": "The stability of dendrimers at different pH values and temperatures was also determined. For this, a 510 model digital pH meter (Oakton Eutech) with working electrode of glass material and a Ag/AgCl as reference electrode was used for the pH record. Dilute solutions of HCl and NaOH were added to adjust the pH of the solution from 2 to 12. Similarly, stability of monomer [G10a]-SHa and its three dendrimers was checked by heating the peptide dendrimers on different temperature ranges, i.e., room temperature, 35 °C, 40 °C, 50 °C and 60 °C."}, "[12]": {"test_system": "Klebsiella pneumoniae (DSM 26371)", "assay_type": "cell-based", "protocol": "(§2) Experiments were performed in triplicate (n = 3)."}, "[13]": {"test_system": "Enterococcus faecalis (DSM 2570)", "assay_type": "cell-based", "protocol": "as §2"}, "[14]": {"test_system": "Staphylococcus aureus (ATCC 6538)", "assay_type": "cell-based", "protocol": "as §2"}, "[15]": {"test_system": "Escherichia coli (ATCC 8739)", "assay_type": "cell-based", "protocol": "as §2"}, "[16]": {"test_system": "Bacillus subtilis (ATCC 6633)", "assay_type": "cell-based", "protocol": "as §2"}, "[17]": {"test_system": "Helicobacter pylori (ATCC 43504)", "assay_type": "cell-based", "protocol": "as §2"}, "[18]": {"test_system": "Acinetobacter baumannii (DSM 30007)", "assay_type": "cell-based", "protocol": "as §2"}, "[19]": {"test_system": "Enterobacter cloacae (DSM 30054)", "assay_type": "cell-based", "protocol": "as §2"}, "[20]": {"test_system": "Pseudomonas aeruginosa (ATCC 9027)", "assay_type": "cell-based", "protocol": "as §2"}, "[21]": {"test_system": "Enterococcus faecium (DSM 20477)", "assay_type": "cell-based", "conditions": "DSM 20477", "protocol": "as §2"}, "[22]": {"conditions": "cited from earlier work"}, "[23]": {"test_system": "methicillin-resistant Staphylococcus aureus (MRSA)", "set-up": "method as in PMID 35092568", "conditions": "cited from earlier work"}, "[24]": {"test_system": "human cancer cells", "assay_type": "cell-based", "conditions": "48 h", "protocol": "as §1"}, "[25]": {"test_system": "human lung fibroblasts IMR-90", "assay_type": "cell-based", "conditions": "48 h", "protocol": "as §1"}, "[26]": {"test_system": "human red blood cells", "assay": "Hemolysis assay", "assay_type": "cell-based", "protocol": "(§3) The ability of dendrimers and peptides to cause hemolysis was evaluated using human whole red blood cells. Briefly, fresh human erythrocytes (obtained from Divbio Science Europe, NL) were washed 3 times by centrifugation at 800× g for 5 min with sterile phosphate buffer saline (PBS, pH 7.4). The washed erythrocytes were resuspended in complete culture media (DMEM supplemented with 10% FBS) to a final concentration of 8%. Human erythrocytes were then added into sterile 96-well microplates (150 µL per well) and were exposed to increasing concentrations of peptides or dendrimers. After 1 h incubation at 37 °C, plates were centrifuged at 800× g for 5 min. Then, 100 µL of supernatant were carefully transferred to a new 96-well microplate and absorbance was measured at 450 nm using microplate reader. Triton-X100 at 0.1% (v/v) was used as positive control giving 100% hemolysis. The HC50 values of peptides and dendrimers (i.e., the concentration of compound causing 50% of hemolysis) were calculated using GraphPad® Prism 7 software."}, "[27]": {"assay": "Hemolysis assay", "assay_type": "cell-based, human", "conditions": "human", "protocol": "as §3"}}, "note": "“Also recorded” adds a separate entry of the source. Where two headings read alike, the source gives them in different places. Where a SMILES comes first, the peptide text is derived from it.", "data": [{"smiles": "CC[C@H](C)[C@H](NC(=O)CNC(=O)[C@H](CO)NC(=O)[C@H](CC(C)C)NC(=O)[C@@H](N)Cc1ccccc1)C(=O)N[C@H](C(=O)NCC(=O)N[C@@H](CCSC)C(=O)N[C@@H](CC(C)C)C(=O)N[C@H](C)C(=O)N[C@@H](CCCCN)C(=O)N[C@@H](CC(C)C)C(=O)N[C@@H](Cc1ccccc1)C(N)=O)C(C)C", "note": "[[G10a]-SHa, H-Phe^1-Leu^2-Ser^3-Gly^4-Ile^5-Val^6-Gly^7-Met^8-Leu^9-D-Ala^10-Lys^11-Leu^12-Phe^13-NH2] (HELM PEPTIDE1{F.L.S.G.I.V.G.M.L.[dA].K.L.F.[am]}$$$$V2.0)", "values": [{"measurement": "stability at different pH", "setting": "[1]", "result": "significantly stable at pH values up to 10 and unstable at high pH values of 12 and 14"}, {"measurement": "antibacterial activity (in words)", "setting": "[2]", "result": "active"}, {"measurement": "IC50", "setting": "[3]", "result": "14.8 ± 7.35", "unit": "µM"}, {"measurement": "IC50", "setting": "[4]", "result": "22.4 ± 6.07", "unit": "µM"}, {"measurement": "IC50", "setting": "[5]", "result": "15.2 ± 0.8", "unit": "µM"}, {"measurement": "IC50", "setting": "[6]", "result": "14.5 ± 1.44", "unit": "µM"}, {"measurement": "IC50", "setting": "[7]", "result": "15.1 ± 8.51", "unit": "µM"}, {"measurement": "IC50", "setting": "[8]", "result": "31.6 ± 1.56", "unit": "µM"}, {"measurement": "IC50", "setting": "[9]", "result": "13 ± 1.99", "unit": "µM"}, {"measurement": "Pdi Values (polydispersity index)", "setting": "[10]; DLS", "result": 0.628}, {"measurement": "Z-Average", "setting": "[10]; DLS, room temperature", "result": 63.25, "unit": "nm·days"}, {"measurement": "Zeta Potential", "setting": "[10]; zetasizer", "result": "−34.1", "unit": "mV"}, {"measurement": "stability at different temperatures", "setting": "[11]", "result": "considerable stability up to 60 °C; also recorded: higher stability up to 60 °C"}, {"measurement": "minimal inhibitory concentration (MIC)", "setting": "[12]; DSM 26371", "result": 100, "unit": "µM"}, {"measurement": "minimal inhibitory concentration (MIC)", "setting": "[12]; K. pneumoniae (DSM 26371), 18–24 h", "result": 100, "unit": "µM"}, {"measurement": "minimal inhibitory concentration (MIC)", "setting": "[13]; DSM 2570", "result": 25, "unit": "µM"}, {"measurement": "minimal inhibitory concentration (MIC)", "setting": "[13]; E. faecalis (DSM 2570), 18–24 h, micro-aerobic", "result": 25, "unit": "µM"}, {"measurement": "minimal inhibitory concentration (MIC)", "setting": "[14]; ATCC 6538", "result": 3.12, "unit": "µM"}, {"measurement": "minimal inhibitory concentration (MIC)", "setting": "[14]; S. aureus (ATCC 6538), 18–24 h, aerobic", "result": 3.12, "unit": "µM"}, {"measurement": "minimal inhibitory concentration (MIC)", "setting": "[15]; ATCC 8739", "result": 100, "unit": "µM"}, {"measurement": "minimal inhibitory concentration (MIC)", "setting": "[15]; E. coli (ATCC 8739), 18–24 h, aerobic", "result": 100, "unit": "µM"}, {"measurement": "minimal inhibitory concentration (MIC)", "setting": "[16]; ATCC 6633", "result": 3.12, "unit": "µM"}, {"measurement": "minimal inhibitory concentration (MIC)", "setting": "[16]; B. subtilis (ATCC 6633), 18–24 h, aerobic", "result": 3.12, "unit": "µM"}, {"measurement": "minimal inhibitory concentration (MIC)", "setting": "[17]; ATCC 43504", "result": 3.12, "unit": "µM"}, {"measurement": "minimal inhibitory concentration (MIC)", "setting": "[17]; H. pylori (ATCC 43504), 18–24 h, micro-aerobic", "result": 3.12, "unit": "µM"}, {"measurement": "minimal inhibitory concentration (MIC)", "setting": "[18]; A. baumannii (DSM 30007), 18–24 h, aerobic", "result": 12.5, "unit": "µM"}, {"measurement": "minimal inhibitory concentration (MIC)", "setting": "[18]; DSM 30007", "result": 12.5, "unit": "µM"}, {"measurement": "minimal inhibitory concentration (MIC)", "setting": "[19]; DSM 30054", "result": ">100", "unit": "µM"}, {"measurement": "minimal inhibitory concentration (MIC)", "setting": "[19]; E. cloacae (DSM 30054), 18–24 h, aerobic", "result": "> 100", "unit": "µM"}, {"measurement": "minimal inhibitory concentration (MIC)", "setting": "[20]; ATCC 9027", "result": ">100", "unit": "µM"}, {"measurement": "minimal inhibitory concentration (MIC)", "setting": "[20]; P. aeruginosa (ATCC 9027), 18–24 h, aerobic", "result": "> 100", "unit": "µM"}, {"measurement": "minimal inhibitory concentration (MIC)", "setting": "[21]", "result": ">100", "unit": "µM"}, {"measurement": "serum stability (in words)", "setting": "[22]", "result": "good serum stability"}, {"measurement": "antibacterial activity (in words)", "setting": "[23]", "result": "active"}, {"measurement": "IC50", "setting": "[24]", "result": "18.1 ± 6.68", "unit": "µM"}, {"measurement": "IC50", "setting": "[25]", "result": "37.2 ± 2.88", "unit": "µM"}, {"measurement": "hemolytic activity (in words)", "setting": "[26]", "result": "high hemolytic activity"}, {"measurement": "estimated HC50 (concentration causing 50% of hemolysis)", "setting": "[26]; red cells of human, 1 h", "result": "43.66 ± 1.01", "unit": "µM"}, {"measurement": "hemolysis at 100 µM", "setting": "[27]", "result": "102 ± 6.18", "unit": "%"}]}]}
